In the NIST ThermoML archive (doi:10.1021/je050021e):

Key:
[1] = Liquid
[2] = xn = mol fraction of the nth substance listed; conditions: Liquid, x2 = 0

COCCOCCOCCOC [2,5,8,11-tetraoxadodecane]
[1]
Conditions	mass density, 303.15 K [kg/m3]	mass density, 313.15 K [kg/m3]	mass density, 323.15 K [kg/m3]	mass density, 333.15 K [kg/m3]	mass density, 343.15 K [kg/m3]	viscosity, 303.15 K [mPa·s]	viscosity, 313.15 K [mPa·s]	viscosity, 323.15 K [mPa·s]	viscosity, 333.15 K [mPa·s]	viscosity, 343.15 K [mPa·s]
101 kPa	–	–	–	–	–	1.77	1.48	1.26	1.08	0.945
101.3 kPa	975.86	966.36	956.85	947.32	937.72	–	–	–	–	–

CC(=O)N1CCOCC1 [4-acetylmorpholine]
[1], 101 kPa
Conditions	mass density [kg/m3]	viscosity [mPa·s]
298.15 K	1110.33	8.48
303.15 K	1106	7.1
313.15 K	1097.35	5.18
323.15 K	1088.74	3.96
333.15 K	1080.14	3.12
343.15 K	1071.55	2.55

O [water] + CC(=O)N1CCOCC1
[2], 101 kPa
Conditions	mass density [kg/m3]	viscosity [mPa·s]
298.15 K	–	0.8903
303.15 K	–	0.7976
313.15 K	–	0.6531
323.15 K	988.04	0.547
333.15 K	983.12	0.466
343.15 K	977.77	0.4049

O [water] + COCCOCCOCCOC
[2]
Conditions	mass density, 323.15 K [kg/m3]	mass density, 333.15 K [kg/m3]	mass density, 343.15 K [kg/m3]	viscosity, 303.15 K [mPa·s]	viscosity, 313.15 K [mPa·s]	viscosity, 323.15 K [mPa·s]	viscosity, 333.15 K [mPa·s]	viscosity, 343.15 K [mPa·s]
101 kPa	–	–	–	0.89	0.6531	0.547	0.466	0.4049
101.3 kPa	988.04	983.12	977.77	–	–	–	–	–
